# Measurements from patent US20250101023A1, “HETEROARYL DERIVATIVE AND USES THEREOF” (IUCF-HYU (INDUSTRY-UNIVERSITY COOPERATION FOUNDATION …, priority 2022, published 2025).
# Legend:
# CDK12/CyclinK = CDK12/CyclinK (Homo sapiens (Human), UniProt Q9NYV4); assay: CDK12/cyclinK enzyme activity; format: biochemical; details: in vitro
# [1] = tested on: Pol II CTD (Ser2) phosphorylation; assay: Western blot, Pol II CTD Ser2 phosphorylation; format: cell-based; details: SK-Br3 and HCC1954 cell lines, 40 and 200 nM, 2 hours
# IRS1 and WNT1 = assay: Western blot, CDK12 downstream gene expression; format: cell-based; details: SK-Br3 and HCC1954 cell lines, 40 and 200 nM, 24 hours
# EPHB2 = EPHB2 (Homo sapiens (Human), UniProt P29323); assay: Kinome-wide profiling; format: biochemical; details: read-out: % Residual Activity (mean)
# CDK3/cyclin E2 = CDK3/cyclin E2 (Homo sapiens (Human), UniProt Q00526); assay: Kinome-wide profiling; format: biochemical; details: read-out: % Residual Activity (mean)
# CDK2/CYCLIN E = CDK2/CYCLIN E (Homo sapiens (Human), UniProt P24941); assay: Kinome-wide profiling; format: biochemical; details: read-out: % Residual Activity (mean)
# MYLK4 = MYLK4 (Homo sapiens (Human), UniProt Q86YV6); assay: Kinome-wide profiling; format: biochemical; details: read-out: % Residual Activity (mean)
# CAMKK1 = CAMKK1 (Homo sapiens (Human), UniProt Q8N5S9); assay: Kinome-wide profiling; format: biochemical; details: read-out: % Residual Activity (mean)
# TYRO3/SKY = TYRO3/SKY (Homo sapiens (Human), UniProt Q06418); assay: Kinome-wide profiling; format: biochemical; details: read-out: % Residual Activity (mean)
# AURORA C = AURORA C (Homo sapiens (Human), UniProt Q9UQB9); assay: Kinome-wide profiling; format: biochemical; details: read-out: % Residual Activity (mean)
# TRKA = TRKA (Homo sapiens (Human), UniProt P04629); assay: Kinome-wide profiling; format: biochemical; details: read-out: % Residual Activity (mean)
# PAK3 = PAK3 (Homo sapiens (Human), UniProt O75914); assay: Kinome-wide profiling; format: biochemical; details: read-out: % Residual Activity (mean)
# Aurora A = Aurora A (Homo sapiens (Human), UniProt O14965); assay: Kinome-wide profiling; format: biochemical; details: read-out: % Residual Activity (mean)
# FLT1/VEGFR1 = FLT1/VEGFR1 (Homo sapiens (Human), UniProt P17948); assay: Kinome-wide profiling; format: biochemical; details: read-out: % Residual Activity (mean)
# PKCb2 = PKCb2 (Homo sapiens (Human), UniProt P05771); assay: Kinome-wide profiling; format: biochemical; details: read-out: % Residual Activity (mean)
# FLT3 = FLT3 (Homo sapiens (Human), UniProt P36888); assay: Kinome-wide profiling; format: biochemical; details: read-out: % Residual Activity (mean)
# GRK7 = GRK7 (Homo sapiens (Human), UniProt Q8WTQ7); assay: Kinome-wide profiling; format: biochemical; details: read-out: % Residual Activity (mean)
# SIK1 = SIK1 (Homo sapiens (Human), UniProt P57059); assay: Kinome-wide profiling; format: biochemical; details: read-out: % Residual Activity (mean)
# STK32B/YANK2 = STK32B/YANK2 (Homo sapiens (Human), UniProt Q9NY57); assay: Kinome-wide profiling; format: biochemical; details: read-out: % Residual Activity (mean)
# RSK2 = RSK2 (Homo sapiens (Human), UniProt P51812); assay: Kinome-wide profiling; format: biochemical; details: read-out: % Residual Activity (mean)
# c-MER = c-MER (Homo sapiens (Human), UniProt Q12866); assay: Kinome-wide profiling; format: biochemical; details: read-out: % Residual Activity (mean)
# MEK3 = MEK3 (Homo sapiens (Human), UniProt P46734); assay: Kinome-wide profiling; format: biochemical; details: read-out: % Residual Activity (mean)
# GRK1 = GRK1 (Homo sapiens (Human), UniProt Q15835); assay: Kinome-wide profiling; format: biochemical; details: read-out: % Residual Activity (mean)
# MARK3 = MARK3 (Homo sapiens (Human), UniProt P27448); assay: Kinome-wide profiling; format: biochemical; details: read-out: % Residual Activity (mean)
# IKKb/IKBKB = IKKb/IKBKB (Homo sapiens (Human), UniProt O14920); assay: Kinome-wide profiling; format: biochemical; details: read-out: % Residual Activity (mean)
# EGFR = EGFR (Homo sapiens (Human), UniProt P00533); assay: Kinome-wide profiling; format: biochemical; details: read-out: % Residual Activity (mean)
# NEK5 = NEK5 (Homo sapiens (Human), UniProt Q6P3R8); assay: Kinome-wide profiling; format: biochemical; details: read-out: % Residual Activity (mean)
# SGK1 = SGK1 (Homo sapiens (Human), UniProt O00141); assay: Kinome-wide profiling; format: biochemical; details: read-out: % Residual Activity (mean)
# STK32C/YANK3 = STK32C/YANK3 (Homo sapiens (Human), UniProt Q86UX6); assay: Kinome-wide profiling; format: biochemical; details: read-out: % Residual Activity (mean)
# RON/MST1R = RON/MST1R (Homo sapiens (Human), UniProt Q04912); assay: Kinome-wide profiling; format: biochemical; details: read-out: % Residual Activity (mean)
# KSR2 = KSR2 (Homo sapiens (Human), UniProt Q6VAB6); assay: Kinome-wide profiling; format: biochemical; details: read-out: % Residual Activity (mean)
# NEK6 = NEK6 (Homo sapiens (Human), UniProt Q9HC98); assay: Kinome-wide profiling; format: biochemical; details: read-out: % Residual Activity (mean)
# ROCK2 = ROCK2 (Homo sapiens (Human), UniProt O75116); assay: Kinome-wide profiling; format: biochemical; details: read-out: % Residual Activity (mean)
# SGK3/SGKL = SGK3/SGKL (Homo sapiens (Human), UniProt Q96BR1); assay: Kinome-wide profiling; format: biochemical; details: read-out: % Residual Activity (mean)
# EPHA8 = EPHA8 (Homo sapiens (Human), UniProt P29322); assay: Kinome-wide profiling; format: biochemical; details: read-out: % Residual Activity (mean)
# MKK4 = MKK4 (Homo sapiens (Human), UniProt P45985); assay: Kinome-wide profiling; format: biochemical; details: read-out: % Residual Activity (mean)
# YSK4/MAP3K19 = YSK4/MAP3K19 (Homo sapiens (Human), UniProt Q56UN5); assay: Kinome-wide profiling; format: biochemical; details: read-out: % Residual Activity (mean)
# MRCKb/CDC42BPB = MRCKb/CDC42BPB (Homo sapiens (Human), UniProt Q9Y5S2); assay: Kinome-wide profiling; format: biochemical; details: read-out: % Residual Activity (mean)
# RSK2, sequence (P51812 whole entry): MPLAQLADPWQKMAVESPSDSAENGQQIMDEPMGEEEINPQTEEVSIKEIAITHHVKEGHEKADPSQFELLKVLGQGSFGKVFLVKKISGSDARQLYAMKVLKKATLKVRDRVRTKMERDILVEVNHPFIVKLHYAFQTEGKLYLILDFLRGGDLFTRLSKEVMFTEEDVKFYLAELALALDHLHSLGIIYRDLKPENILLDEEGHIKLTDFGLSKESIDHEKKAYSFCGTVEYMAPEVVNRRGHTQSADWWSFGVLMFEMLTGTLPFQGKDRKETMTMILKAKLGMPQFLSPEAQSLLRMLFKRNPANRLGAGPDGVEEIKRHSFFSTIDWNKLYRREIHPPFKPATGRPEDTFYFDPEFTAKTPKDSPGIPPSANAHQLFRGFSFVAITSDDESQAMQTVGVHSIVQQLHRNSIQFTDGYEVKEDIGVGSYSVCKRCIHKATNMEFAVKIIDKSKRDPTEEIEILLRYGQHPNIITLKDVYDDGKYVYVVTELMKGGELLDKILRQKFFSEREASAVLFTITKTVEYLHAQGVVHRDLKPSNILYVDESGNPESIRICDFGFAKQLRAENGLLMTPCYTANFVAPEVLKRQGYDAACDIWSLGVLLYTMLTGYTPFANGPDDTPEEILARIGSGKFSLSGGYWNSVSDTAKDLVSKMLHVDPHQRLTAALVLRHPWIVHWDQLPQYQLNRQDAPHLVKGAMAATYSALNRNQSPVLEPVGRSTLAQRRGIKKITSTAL
# SGK1, sequence (O00141 whole entry): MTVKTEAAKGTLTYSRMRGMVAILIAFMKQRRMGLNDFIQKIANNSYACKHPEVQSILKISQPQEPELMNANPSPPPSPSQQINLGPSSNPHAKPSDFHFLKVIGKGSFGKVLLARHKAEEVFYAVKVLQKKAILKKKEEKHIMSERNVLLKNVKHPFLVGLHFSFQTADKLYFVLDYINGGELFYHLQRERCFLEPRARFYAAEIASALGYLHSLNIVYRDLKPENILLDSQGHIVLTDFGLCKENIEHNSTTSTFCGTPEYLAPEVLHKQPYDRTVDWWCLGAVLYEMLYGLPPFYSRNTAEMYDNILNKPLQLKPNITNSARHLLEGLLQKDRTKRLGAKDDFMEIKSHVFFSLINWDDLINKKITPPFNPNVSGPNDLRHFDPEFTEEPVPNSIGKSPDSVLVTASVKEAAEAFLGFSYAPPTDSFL
# ROCK2, sequence (O75116 whole entry): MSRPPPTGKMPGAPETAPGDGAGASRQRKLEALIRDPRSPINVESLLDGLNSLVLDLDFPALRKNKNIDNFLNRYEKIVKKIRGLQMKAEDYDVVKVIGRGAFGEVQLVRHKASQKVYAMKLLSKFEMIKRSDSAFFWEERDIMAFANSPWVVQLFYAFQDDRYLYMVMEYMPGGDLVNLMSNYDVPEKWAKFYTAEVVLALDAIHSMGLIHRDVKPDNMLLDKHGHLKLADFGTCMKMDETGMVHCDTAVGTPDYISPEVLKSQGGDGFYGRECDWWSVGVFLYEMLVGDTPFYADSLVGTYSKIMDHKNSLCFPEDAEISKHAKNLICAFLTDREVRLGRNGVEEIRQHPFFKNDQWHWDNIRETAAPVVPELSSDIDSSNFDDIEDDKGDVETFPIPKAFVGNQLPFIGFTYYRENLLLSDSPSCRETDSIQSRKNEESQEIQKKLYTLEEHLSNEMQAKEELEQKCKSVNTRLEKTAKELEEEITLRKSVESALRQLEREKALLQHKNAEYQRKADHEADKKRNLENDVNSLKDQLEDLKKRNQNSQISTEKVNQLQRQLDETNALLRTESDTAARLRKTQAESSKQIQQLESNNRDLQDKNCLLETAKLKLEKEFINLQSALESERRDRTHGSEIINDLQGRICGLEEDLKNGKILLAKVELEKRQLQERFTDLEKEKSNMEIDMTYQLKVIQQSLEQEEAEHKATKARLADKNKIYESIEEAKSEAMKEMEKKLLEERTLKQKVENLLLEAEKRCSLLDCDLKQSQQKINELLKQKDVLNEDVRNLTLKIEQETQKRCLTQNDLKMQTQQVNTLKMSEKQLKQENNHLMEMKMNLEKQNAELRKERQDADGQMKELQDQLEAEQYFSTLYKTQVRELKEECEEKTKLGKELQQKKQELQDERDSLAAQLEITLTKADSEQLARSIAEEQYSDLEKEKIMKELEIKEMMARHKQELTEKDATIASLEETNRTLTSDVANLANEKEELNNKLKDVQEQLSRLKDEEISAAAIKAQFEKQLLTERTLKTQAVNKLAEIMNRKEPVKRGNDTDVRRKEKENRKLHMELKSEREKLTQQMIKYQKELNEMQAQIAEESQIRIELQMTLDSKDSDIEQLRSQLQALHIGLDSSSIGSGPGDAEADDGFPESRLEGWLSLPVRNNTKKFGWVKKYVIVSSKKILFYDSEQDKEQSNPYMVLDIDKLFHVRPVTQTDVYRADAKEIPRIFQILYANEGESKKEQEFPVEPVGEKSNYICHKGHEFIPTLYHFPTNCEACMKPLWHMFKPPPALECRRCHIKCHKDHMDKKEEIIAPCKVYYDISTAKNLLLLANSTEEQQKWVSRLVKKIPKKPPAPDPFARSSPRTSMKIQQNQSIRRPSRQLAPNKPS
# GRK1, sequence (Q15835 whole entry): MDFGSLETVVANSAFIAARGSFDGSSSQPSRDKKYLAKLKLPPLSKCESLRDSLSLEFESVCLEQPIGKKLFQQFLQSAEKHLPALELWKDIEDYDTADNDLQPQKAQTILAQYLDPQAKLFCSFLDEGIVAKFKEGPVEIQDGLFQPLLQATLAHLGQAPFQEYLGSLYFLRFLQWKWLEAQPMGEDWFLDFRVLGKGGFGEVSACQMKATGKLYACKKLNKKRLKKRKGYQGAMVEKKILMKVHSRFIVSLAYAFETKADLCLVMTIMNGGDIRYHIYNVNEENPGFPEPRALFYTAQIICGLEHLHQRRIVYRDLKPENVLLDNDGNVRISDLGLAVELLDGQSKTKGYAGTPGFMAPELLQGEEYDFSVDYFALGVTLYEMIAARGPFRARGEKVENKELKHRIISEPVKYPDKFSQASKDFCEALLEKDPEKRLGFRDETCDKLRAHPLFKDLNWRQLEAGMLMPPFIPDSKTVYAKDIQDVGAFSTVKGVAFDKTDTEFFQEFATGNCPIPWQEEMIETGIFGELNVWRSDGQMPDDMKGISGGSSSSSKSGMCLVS
# PAK3, sequence (O75914 whole entry): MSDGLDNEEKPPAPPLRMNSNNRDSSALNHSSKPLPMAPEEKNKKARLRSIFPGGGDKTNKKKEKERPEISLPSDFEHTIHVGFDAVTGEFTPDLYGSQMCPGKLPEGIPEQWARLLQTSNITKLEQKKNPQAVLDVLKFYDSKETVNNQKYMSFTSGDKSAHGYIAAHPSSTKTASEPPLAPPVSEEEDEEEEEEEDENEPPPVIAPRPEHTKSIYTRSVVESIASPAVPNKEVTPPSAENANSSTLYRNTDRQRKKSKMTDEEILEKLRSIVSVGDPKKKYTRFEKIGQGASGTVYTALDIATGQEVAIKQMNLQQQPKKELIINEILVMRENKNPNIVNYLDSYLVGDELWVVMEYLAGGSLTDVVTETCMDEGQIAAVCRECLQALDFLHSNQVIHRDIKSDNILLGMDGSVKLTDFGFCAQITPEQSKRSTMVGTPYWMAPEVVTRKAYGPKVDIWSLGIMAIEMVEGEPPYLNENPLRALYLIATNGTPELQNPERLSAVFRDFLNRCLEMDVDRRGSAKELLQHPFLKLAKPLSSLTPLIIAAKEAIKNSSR
# MEK3, sequence (P46734 whole entry): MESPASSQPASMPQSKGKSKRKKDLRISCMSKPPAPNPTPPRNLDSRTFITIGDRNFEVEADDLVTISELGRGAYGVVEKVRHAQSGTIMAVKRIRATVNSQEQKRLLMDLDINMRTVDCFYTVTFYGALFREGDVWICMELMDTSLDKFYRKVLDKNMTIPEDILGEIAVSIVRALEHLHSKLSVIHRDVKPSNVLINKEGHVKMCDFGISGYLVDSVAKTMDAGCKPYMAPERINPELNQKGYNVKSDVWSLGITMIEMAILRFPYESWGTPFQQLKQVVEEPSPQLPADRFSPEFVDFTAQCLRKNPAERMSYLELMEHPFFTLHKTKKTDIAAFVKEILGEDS
# EPHA8, sequence (P29322 28-1005): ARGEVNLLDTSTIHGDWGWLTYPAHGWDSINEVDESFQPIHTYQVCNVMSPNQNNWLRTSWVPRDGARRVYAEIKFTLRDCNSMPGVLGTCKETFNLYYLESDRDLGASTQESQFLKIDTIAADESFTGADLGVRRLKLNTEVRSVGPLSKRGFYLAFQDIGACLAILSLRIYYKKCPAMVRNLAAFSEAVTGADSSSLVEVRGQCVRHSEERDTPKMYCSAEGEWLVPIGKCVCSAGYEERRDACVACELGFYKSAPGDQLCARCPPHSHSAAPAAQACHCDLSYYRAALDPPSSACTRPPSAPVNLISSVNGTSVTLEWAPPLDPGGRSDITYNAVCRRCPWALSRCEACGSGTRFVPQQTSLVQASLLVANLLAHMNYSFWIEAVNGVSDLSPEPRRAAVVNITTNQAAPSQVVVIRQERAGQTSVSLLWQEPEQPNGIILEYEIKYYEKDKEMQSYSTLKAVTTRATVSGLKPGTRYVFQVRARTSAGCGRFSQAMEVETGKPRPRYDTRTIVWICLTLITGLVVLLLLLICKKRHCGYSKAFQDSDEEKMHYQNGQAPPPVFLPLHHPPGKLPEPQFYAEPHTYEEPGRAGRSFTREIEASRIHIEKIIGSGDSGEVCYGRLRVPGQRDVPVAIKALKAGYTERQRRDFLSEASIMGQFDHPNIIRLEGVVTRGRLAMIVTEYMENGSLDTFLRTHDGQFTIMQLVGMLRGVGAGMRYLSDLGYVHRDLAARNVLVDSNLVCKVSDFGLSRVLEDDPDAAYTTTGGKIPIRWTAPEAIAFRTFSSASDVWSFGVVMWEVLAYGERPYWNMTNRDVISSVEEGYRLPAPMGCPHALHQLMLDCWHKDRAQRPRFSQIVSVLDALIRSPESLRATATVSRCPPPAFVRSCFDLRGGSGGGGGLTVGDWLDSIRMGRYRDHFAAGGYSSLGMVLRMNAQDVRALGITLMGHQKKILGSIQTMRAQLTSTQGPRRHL
structure (smiles),measurement,setting,value
"CCn1cnc2c(NCc3ccc(-c4ccccn4)nc3)nc(-c3ccc(N)nc3)nc21 [Example 53, N-([2,2′-bipyridin]-5-ylmethyl)-2-(6-aminopyridin-3-yl)-9-ethyl-9H-purin-6-amine]",IC50,CDK12/CyclinK,0.03 µM
same,Pol II CTD (Ser2) phosphorylation,[1],inhibited Pol II CTD (Ser2) phosphorylation
same,Pol II CTD (Ser2) phosphorylation,[1]; listed as Compound 53,strong dose-dependent suppression of Pol II phosphorylation
same,expression of IRS1 and WNT1,IRS1 and WNT1,inhibited the expression of IRS1 and WNT1
same,expression of IRS1 and WNT1,IRS1 and WNT1; listed as Compound 53,strongly suppressed
same,remaining activity at 10 µM,EPHB2,2.52%
same,remaining activity at 10 µM,CDK3/cyclin E2,2.63%
same,remaining activity at 10 µM,CDK2/CYCLIN E,4.01%
same,remaining activity at 10 µM,MYLK4,4.07%
same,remaining activity at 10 µM,CAMKK1,18.7%
same,remaining activity at 10 µM,TYRO3/SKY,22.4%
same,remaining activity at 10 µM,AURORA C,25.5%
same,remaining activity at 10 µM,TRKA,28.7%
same,remaining activity at 10 µM,PAK3,29.1%
same,remaining activity at 10 µM,Aurora A,33.4%
same,remaining activity at 10 µM,FLT1/VEGFR1,36.3%
same,remaining activity at 10 µM,PKCb2,39.6%
same,remaining activity at 10 µM,FLT3,40.2%
same,remaining activity at 10 µM,GRK7,49.7%
same,remaining activity at 10 µM,SIK1,56.3%
same,remaining activity at 10 µM,STK32B/YANK2,57.6%
same,remaining activity at 10 µM,RSK2,69.4%
same,remaining activity at 10 µM,c-MER,71%
same,remaining activity at 10 µM,MEK3,73.5%
same,remaining activity at 10 µM,GRK1,76.3%
same,remaining activity at 10 µM,MARK3,83.1%
same,remaining activity at 10 µM,IKKb/IKBKB,83.7%
same,remaining activity at 10 µM,EGFR,83.7%
same,remaining activity at 10 µM,NEK5,83.8%
same,remaining activity at 10 µM,SGK1,84.9%
same,remaining activity at 10 µM,STK32C/YANK3,86.7%
same,remaining activity at 10 µM,RON/MST1R,86.8%
same,remaining activity at 10 µM,KSR2,88.4%
same,remaining activity at 10 µM,NEK6,92.1%
same,remaining activity at 10 µM,ROCK2,92.2%
same,remaining activity at 10 µM,SGK3/SGKL,92.6%
same,remaining activity at 10 µM,EPHA8,94%
same,remaining activity at 10 µM,MKK4,96.4%
same,remaining activity at 10 µM,YSK4/MAP3K19,96.8%
same,remaining activity at 10 µM,MRCKb/CDC42BPB,99.3%
